Source: patent US20220163532A1, “NUCLEAR-DERIVED EXOSOMES AND METHODS OF USE THEREOF” (Board of Regents, The University of Texas System, priority 2019, published 2022)

Tests used:
[1] = system: OVCAR-5 ovarian cancer model; assay: nExos in serum and ascites of OVCAR-5 tumor-bearing mice by imaging flow cytometry; assay type: in vivo, mouse; settings: topotecan 7.5 mg/kg vs vehicle control
Source text: Exosome staining for imaging flow cytometry and analysis. For quantitative analysis and imaging flow cytometry of exosomes, the method described by Erdbrugger et al. (2014) using an Amnis ImageStreamX MarkII analyzer was adapted. Briefly, 3×10^9 to 5×10^9 particles were isolated from either tissue culture cells, mouse serum and ascites, or serum obtained from patients with ovarian cancer and resuspended in PBS. Exosomes were placed in a sterile 1.5-ml Eppendorf tube and stained with CellMask Green Plasma Membrane (CMG) stain (1:250 dilution; C37608, Thermo Fisher Scientific) for 30 min at 37° C., protected from light. Exosomes were then washed to remove excess CMG by adding 2 ml of PBS and pelleted by ultracentrifugation at 40,000 rpm for 2 hours at 4° C. […]
To stain for dsDNA, CMG-stained exosomes were co-stained with DRAQ5 (62254, Thermo Fisher Scientific) at either 1:50 dilution for biofluid exosome samples or 1:250 dilution for cell culture samples and were lightly agitated at RT for 1 hour, protected from light. Samples were then placed on ice, and images of single exosomes were detected using the 60× objective of an Amnis ImageStreamX MarkII analyzer. […] Particle size was estimated using Invitrogen Flow Cytometry Submicron Particle Size Reference Beads (F13839, Thermo Fisher Scientific), allowing exclusion of particles <150 nm based on the signal detected from side scatter. […]

[2] = system: OVCAR-5 and OVCAR-8 cells; assay: DNA-positive exosomes (nExo) from drug-treated ovarian cancer cells by imaging flow cytometry; assay type: cell-based, human; settings: topotecan 10 nM or olaparib 20 μM, parental cells treated 48 hours, vs DMSO
Method: Isolation of exosomes. The isolation method for exosomes that was used in this study followed the standard methods of the International Society of Extracellular Vesicles (Witwer et al., 2013). Cell lines described above were grown in the corresponding medium described above until 60 to 70% confluence was achieved. Cells were then washed twice with phosphate-buffered saline (PBS) and grown in corresponding medium containing 1% exosome-free FBS (EXO-FBS-250A-1, System Biosciences) plus 0.1% gentamicin for 48 hours. For exosome isolation, the harvested medium underwent serial centrifugation. First, the medium was spun down at 500g for 10 min to pellet any floating cells. Next, the supernatant was collected and spun down at 2000g for 30 min to pellet any residual cell debris. The resulting supernatant was then filtered through a 0.22-μm filter (SCGPUO5RE and SLGP033RS, Millipore-Sigma) to remove any remaining large vesicles. […] Exosome concentration and quantity were determined using NTA with a NanoSight NS300 instrument (Malvern Panalytical).
Exosome staining for imaging flow cytometry and analysis. For quantitative analysis and imaging flow cytometry of exosomes, the method described by Erdbrugger et al. (2014) using an Amnis ImageStreamX MarkII analyzer was adapted. […]

CC[C@@]1(O)C(=O)OCc2c1cc1n(c2=O)Cc2cc3c(CN(C)C)c(O)ccc3nc2-1 [topotecan]
nExos in ascites ([1]; ascites, P=0.028): significant increase
nExos in serum ([1]; serum): no difference
population of exosomes containing gDNA (proportion of nExo secreted) [2]: increased
